# Laboratory results reported in US10023544B2, “Heterocyclic compound” (Takeda Pharmaceutical Company Limited, priority 2014, dated 2018).
# Structures can show the parent of a compound that is named as a salt.
# Assays:
# [1] = biological target: T1, Human recombinant enteropeptidase (Homo sapiens, UniProt P98073); assay: Human enteropeptidase inhibitory activity; format: biochemical; conditions: 3.3 uM test compound; fluorescence intensity 2 hours after start of reaction; read-out: Inhibition rate at 3.3 uM (%)
# T1 construct: purchased ITSI-Biosciences, LLC #REN-260
# Protocol: Human recombinant enteropeptidase (#REN-260, ITSI-Biosciences, LLC) was diluted with an assay buffer (50 mM Tricine (pH 8.0), 0.01 (w/v) % Tween 20, 10 mM CaCl2) to prepare a 24 mU/mL enzyme solution. Subsequently, 5FAM-Abu-Gly-Asp-Asp-Asp-Lys-Ile-Val-Gly-Gly-Lys(CPQ2)-Lys-Lys-NH2 (purity: 97.2%, CPC Scientific, Inc.) produced according to a synthesis method known per se was diluted with an assay buffer to prepare a 2.1 uM (“u” represents “micro”) substrate solution. Each test compound was dissolved in DMSO to prepare a 1 mM solution, which was then diluted 100-fold with an assay buffer to prepare a compound solution. The compound solution (5 uL/well) and the substrate solution (5 uL/well) were added to a 384-well black plate (#784076, Greiner Bio-One) and mixed. Then, the enzyme solution (5 uL/well) was added to the plate and mixed to start reaction. The fluorescence intensity was measured at an excitation wavelength of 485 nm and a fluorescence wavelength of 535 nm using a fluorescence plate reader EnVision (PerkinElmer Inc.). Also, the same reaction as above was performed except that the test compound was not added (test compound non-supplemented group). In addition, the same reaction as above was performed except that neither the test compound nor the enzyme was added (control group). The inhibition rate was calculated from the fluorescence intensity 2 hours after the start of the reaction according to the following equation: Inhibition rate (%)=(1−(Fluorescence intensity of the test compound supplemented group−Fluorescence intensity of the control group)/(Fluorescence intensity of the test compound non-supplemented group−Fluorescence intensity of the control group))×100
# HFD-fed mouse = assay: Test on elevation of protein concentration in feces using HFD-fed mouse; format: in vivo; conditions: 10 mg/kg oral, whole feces at day 1 of administration, mean ± SD
# Protocol: A 0.5% methylcellulose suspension (test compound administered group, 5 mice per group) containing each test compound (10 mg/kg) or a 0.5% methylcellulose suspension (test compound non-administered group (vehicle), 5 mice per group) was orally administered to each high fat diet-fed (HFD-fed) mouse (D12079B diet, male, 15 weeks old), and the whole feces were recovered at day 1 of administration. The dry feces were dissolved in a 0.5 N aqueous sodium hydroxide solution. After centrifugation at 12,000 rpm, a protein concentration was quantified (Lowry method) using the supernatant to calculate a protein concentration (mg/g feces) in 1 g of feces. The mean and standard deviation of each group are shown below.
# DIO mouse = assay: Test on antiobesity action using DIO mouse; format: in vivo; conditions: mean ± SD; for Body weight (g) At start of administration: baseline
# Protocol: A 0.5% methylcellulose suspension (test compound administered group, 5 or 6 mice per group) containing each test compound (20 or 60 mg/kg) or a 0.5% methylcellulose suspension (test compound non-administered group (vehicle), 6 mice per group) was orally administered to each diet-induced obesity (DIO) mouse (D12079B diet, male, 46 weeks old) once a day for 4 weeks. The means of body weights and standard deviations at the start of administration and after 4-week continuous administration are shown below.
# T1 sequence (P98073 whole entry): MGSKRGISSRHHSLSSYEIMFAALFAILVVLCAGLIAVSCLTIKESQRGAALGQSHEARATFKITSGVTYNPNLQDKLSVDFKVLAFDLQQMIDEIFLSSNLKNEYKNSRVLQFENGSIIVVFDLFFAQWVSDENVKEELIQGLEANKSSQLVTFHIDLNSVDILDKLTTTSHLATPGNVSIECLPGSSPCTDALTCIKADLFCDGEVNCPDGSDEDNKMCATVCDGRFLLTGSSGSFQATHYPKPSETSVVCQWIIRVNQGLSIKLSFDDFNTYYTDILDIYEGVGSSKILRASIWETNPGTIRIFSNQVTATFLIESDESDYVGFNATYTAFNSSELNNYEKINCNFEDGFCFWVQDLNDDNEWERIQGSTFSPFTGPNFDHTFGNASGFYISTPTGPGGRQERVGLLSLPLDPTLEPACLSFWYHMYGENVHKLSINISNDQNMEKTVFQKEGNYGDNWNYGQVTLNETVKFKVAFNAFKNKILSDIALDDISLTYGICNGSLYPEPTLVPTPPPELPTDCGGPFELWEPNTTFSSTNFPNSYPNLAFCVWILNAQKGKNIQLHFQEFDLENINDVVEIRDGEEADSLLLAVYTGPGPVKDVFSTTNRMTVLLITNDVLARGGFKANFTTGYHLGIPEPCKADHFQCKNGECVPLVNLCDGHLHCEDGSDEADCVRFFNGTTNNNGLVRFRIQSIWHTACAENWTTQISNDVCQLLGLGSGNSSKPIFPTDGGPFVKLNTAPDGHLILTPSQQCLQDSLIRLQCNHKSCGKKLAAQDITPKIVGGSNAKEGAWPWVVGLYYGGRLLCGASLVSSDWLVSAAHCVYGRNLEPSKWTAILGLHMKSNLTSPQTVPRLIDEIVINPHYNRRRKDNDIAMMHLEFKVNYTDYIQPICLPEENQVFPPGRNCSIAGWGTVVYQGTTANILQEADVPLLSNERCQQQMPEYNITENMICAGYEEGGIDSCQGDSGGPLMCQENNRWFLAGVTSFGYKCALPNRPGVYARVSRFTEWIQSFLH
smiles,measurement,setting,value
"N=C(N)Nc1ccc(C(=O)Oc2cccc(C3=NO[C@](CC(=O)O)(C(=O)O)C3)c2)cc1 [Example 1, (5R)-3-(3-((4-Carbamimidamidobenzoyl)oxy)phenyl)-5-(carboxymethyl)-4,5-dihydro-1,2-oxazole-5-carboxylic acid]",inhibition at 3.3 µM,[1],101%
same,Protein concentration in feces,HFD-fed mouse,151.5 ± 22.8 mg/g
same,Body weight (g) After 4-week continuous administration,DIO mouse; 20 mg/kg oral once a day for 4 weeks,43.1 ± 3.5 g
same,Body weight (g) At start of administration,DIO mouse; 20 mg/kg oral once a day,48.9 ± 2.0 g
same,Body weight (g) After 4-week continuous administration,DIO mouse; 60 mg/kg oral once a day for 4 weeks,40.2 ± 2.1 g
same,Body weight (g) At start of administration,DIO mouse; 60 mg/kg oral once a day,48.9 ± 2.5 g
"N=C(N)Nc1ccc(C(=O)Oc2ccc(CCC(=O)N3CCS(=O)(=O)CC3)c(C3=NOC(CC(=O)O)(CC(=O)O)C3)c2)cc1 [Example 25, 2,2′-(3-(5-((4-Carbamimidamidobenzoyl)oxy)-2-(3-(1,1-dioxidothiomorpholin-4-yl)-3-oxopropyl)phenyl)-4,5-dihydro-1,2-oxazole-5,5-diyl)diacetic acid]",inhibition at 3.3 µM,[1],100%
"CC(C)(C)C1CCC(c2cc(OC(=O)c3ccc(NC(=N)N)cc3)cc(C3=NOC(CC(=O)O)(C(=O)O)C3)c2)CC1 (stereo not drawn) [Example 12, 3-(3-(4-tert-butylcyclohexyl)-5-((4-carbamimidamidobenzoyl)oxy)phenyl)-5-(carboxymethyl)-4,5-dihydro-1,2-oxazole-5-carboxylic acid (trans or cis form)]",inhibition at 3.3 µM,[1],101%
"N=C(N)Nc1ccc(C(=O)Oc2ccc(-c3ccccc3)c(C3=NOC(CC(=O)O)(C(=O)O)C3)c2)cc1 (stereo not drawn) [Example 9, 3-(4-((4-carbamimidamidobenzoyl)oxy)biphenyl-2-yl)-5-(carboxymethyl)-4,5-dihydro-1,2-oxazole-5-carboxylic acid]",inhibition at 3.3 µM,[1],101%
"N=C(N)Nc1ccc(C(=O)Oc2ccc(C3CCN(CCC(=O)O)CC3)c(C3=NOC(CC(=O)O)(CC(=O)O)C3)c2)cc1 [Example 22, 3-(4-(2-(5,5-Bis(carboxymethyl)-4,5-dihydro-1,2-oxazol-3-yl)-4-((4-carbamimidamidobenzoyl)oxy)phenyl)piperidin-1-yl)propanoic acid ditrifluoroacetate]",inhibition at 3.3 µM,[1],101%
"N=C(N)Nc1ccc(C(=O)Oc2ccc(C3CCN(C(=O)CCC(=O)O)CC3)c(C3=NOC(CC(=O)O)(CC(=O)O)C3)c2)cc1 [Example 7, 4-(4-(2-(5,5-Bis(carboxymethyl)-4,5-dihydro-1,2-oxazol-3-yl)-4-((4-carbamimidamidobenzoyl)oxy)phenyl)piperidin-1-yl)-4-oxobutanoic acid trifluoroacetate]",inhibition at 3.3 µM,[1],101%
"N=C(N)Nc1ccc(C(=O)Oc2cccc(C3=NO[C@@](CC(=O)O)(C(=O)O)C3)c2)cc1 [Example 5, (5S)-3-(3-((4-Carbamimidamidobenzoyl)oxy)phenyl)-5-(carboxymethyl)-4,5-dihydro-1,2-oxazole-5-carboxylic acid]",inhibition at 3.3 µM,[1],101%
same,Protein concentration in feces,HFD-fed mouse,144.5 ± 26.6 mg/g
"N=C(N)Nc1ccc(C(=O)Oc2ccc(CCC(=O)O)c(C3=NOC(CC(=O)O)(C(=O)O)C3)c2)cc1 (stereo not drawn) [Example 15, 3-(5-((4-carbamimidamidobenzoyl)oxy)-2-(2-carboxyethyl)phenyl)-5-(carboxymethyl)-4,5-dihydro-1,2-oxazole-5-carboxylic acid]",inhibition at 3.3 µM,[1],101%
"N=C(N)Nc1ccc(C(=O)Oc2cc(CCC(=O)N[C@@H](CC(=O)O)C(=O)O)cc(C3=NOC(CC(=O)O)(CC(=O)O)C3)c2)cc1 [Example 23, N-(3-(3-(5,5-bis(carboxymethyl)-4,5-dihydro-1,2-oxazol-3-yl)-5-((4-carbamimidamidobenzoyl)oxy)phenyl)propanoyl)-L-aspartic acid]",inhibition at 3.3 µM,[1],100%
